# Reference: PubChem BioAssay AID200 (DTP/NCI, 2004)
# Several values for one entry are separate records, joined by “and”; a condition that tells them apart may be missing. Equal entries are not always repeated. Inconclusive results and toxic doses are left out. Where a SMILES comes first, the peptide text is derived from it.
# Test system: B6C3F1 mice, B16 melanoma ip, median survival T/C
# Assay: NCI In Vivo Anticancer Drug Screen. Data for tumor model B16 Melanoma (intraperitoneal) in B6C3F1 mice
# Details: endpoint: median survival time, schedule: Q01DX009 (ip), higher = longer survival
# Outline: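 Mice bearing transplanted tumor were dosed with compound or vehicle, and survival was recorded. Activity is expressed as the treated-group measurement (T) divided by the vehicle control measurement (C).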
# [1] = dose: 25.0 mg/kg/injection, vehicle: Klucel (hydroxypropylcellulose) (HPC)
# [2] = dose: 50.0 mg/kg/injection, vehicle: Klucel (hydroxypropylcellulose) (HPC)
# [3] = dose: 100.0 mg/kg/injection, vehicle: Klucel (hydroxypropylcellulose) (HPC)
# [4] = dose: 12.5 mg/kg/injection, vehicle: saline
# [5] = dose: 25.0 mg/kg/injection, vehicle: saline
# [6] = dose: 50.0 mg/kg/injection, vehicle: saline
# [7] = dose: 100.0 mg/kg/injection, vehicle: saline
# [8] = dose: 200.0 mg/kg/injection, vehicle: saline
# [9] = dose: 50.0 mg/kg/injection, vehicle: saline with Tween-80
# [10] = dose: 12.5 mg/kg/injection, vehicle: saline with Tween-80
# [11] = dose: 25.0 mg/kg/injection, vehicle: saline with Tween-80
# [12] = dose: 100.0 mg/kg/injection, vehicle: saline with Tween-80
# [13] = dose: 200.0 mg/kg/injection, vehicle: saline with Tween-80
# [14] = dose: 400.0 mg/kg/injection, vehicle: saline with Tween-80
# [15] = dose: 200.0 mg/kg/injection, vehicle: Klucel (hydroxypropylcellulose) (HPC)
smiles,measurement,setting,value
COC(=O)C12OCC34C(CC5C(C)C6=CC(=O)OC6=CC5(C)C3C(O)C1O)OC(=O)C(OC(C)=O)C24 (stereo not given),T/C,"dose: 0.12 mg/kg/injection, vehicle: saline + alcohol",110 % of control
same,T/C,"dose: 0.25 mg/kg/injection, vehicle: saline + alcohol",109 % of control
same,T/C,"dose: 0.5 mg/kg/injection, vehicle: saline + alcohol",105 % of control
same,T/C,"dose: 1.0 mg/kg/injection, vehicle: saline + alcohol",103 % of control
same,T/C,"dose: 2.0 mg/kg/injection, vehicle: saline + alcohol",109 % of control
CN(C)c1ccc(C(=C2C=CC(=[N+](C)C)C=C2)c2ccc(N(C)C)cc2)cc1 (tested in a mixture with another compound),T/C,"dose: 0.62 mg/kg/injection, vehicle: saline",95 % of control
same,T/C,"dose: 1.25 mg/kg/injection, vehicle: saline",105 % of control
same,T/C,"dose: 2.5 mg/kg/injection, vehicle: saline",104 % of control
CCOC(=O)N(CCCCCCNC(c1ccccc1)S(=O)(=O)O)c1ccccc1 (stereo not given),T/C,[1],96 % of control
same,T/C,[2],100 % of control
same,T/C,[3],100 % of control
Nc1nc(/C=C(/O)c2ccccc2)c2ncn(C3OC(CO)C(O)C3O)c2n1 (stereo not given),T/C,"dose: 12.5 mg/kg/injection, vehicle: distilled water + Tween-80",103 % of control
same,T/C,[4],102 % of control
same,T/C,"dose: 25.0 mg/kg/injection, vehicle: distilled water + Tween-80",101 % of control
same,T/C,[5],101 % of control
same,T/C,"dose: 50.0 mg/kg/injection, vehicle: distilled water + Tween-80",95 % of control
same,T/C,[6],111 % of control
same,T/C,"dose: 100.0 mg/kg/injection, vehicle: distilled water + Tween-80",101 % of control
same,T/C,[7],101 % of control
same,T/C,[8],103 % of control
Cc1[nH]ccc2c(C)c3nc4ccccc4c3cc12,T/C,[1],159 % of control
CCCCCCCCCCCCCCCC[N+]1(C)CCN(SN2CC[N+](C)(CCCCCCCCCCCCCCCC)CC2)CC1,T/C,[4],96 % of control
same,T/C,[5],100 % of control
same,T/C,[9],89 % of control
COC(=O)Nc1cn2ccc(Sc3ccccc3)cc2n1,T/C,[2],122 % of control
same,T/C,[3],101 % of control
Cc1ccc(NC(=O)Oc2ccc(Br)cc2Br)c([N+](=O)[O-])c1,T/C,[10],105 % of control
same,T/C,[11],104 % of control
same,T/C,[9],105 % of control
same,T/C,[12],101 % of control
same,T/C,[13],103 % of control
same,T/C,[14],107 % of control
N/C(=N\OC(=O)Nc1ccc(CSc2ccc(Cl)cc2)o1)c1ccccn1,T/C,"dose: 12.5 mg/kg/injection, vehicle: Klucel (hydroxypropylcellulose) (HPC)",97 % of control
same,T/C,[1],95 % of control
same,T/C,[2],91 % of control
same,T/C,[3],91 % of control
same,T/C,[15],86 % of control
C/C=C/C=C/c1cc2cc3c(c(O)c2c(=O)[nH]1)C1(CC3)C(O)=c2c(=O)c3c(=O)cc(OC)c(=O)c=3c(=O)c2=C1O (stereo not given),T/C,"dose: 0.75 mg/kg/injection, vehicle: Klucel (hydroxypropylcellulose) (HPC)",114 % of control and 117 % of control
same,T/C,"dose: 1.5 mg/kg/injection, vehicle: Klucel (hydroxypropylcellulose) (HPC)",114 % of control and 107 % of control
same,T/C,"dose: 3.0 mg/kg/injection, vehicle: Klucel (hydroxypropylcellulose) (HPC)",116 % of control
same,T/C,"dose: 6.0 mg/kg/injection, vehicle: Klucel (hydroxypropylcellulose) (HPC)",115 % of control
same,T/C,"dose: 12.0 mg/kg/injection, vehicle: Klucel (hydroxypropylcellulose) (HPC)",115 % of control
Cc1ccc(N=NN(C)C)cc1,T/C,[11],100 % of control
same,T/C,[9],110 % of control
same,T/C,[12],107 % of control
CC(C)n1cc2c(N)ncnc2n1,T/C,[11],93 % of control
same,T/C,[9],91 % of control
same,T/C,[12],86 % of control
Cc1cc2nc3ccc(N)cc3oc-2cc1=[N+](C)C,T/C,[4],106 % of control
same,T/C,[5],112 % of control
NCCCNCCSP(=O)(O)O,T/C,[10],108 % of control
same,T/C,[4],104 % of control and 106 % of control
same,T/C,[11],97 % of control
same,T/C,[5],115 % of control and 97 % of control
same,T/C,[9],105 % of control
same,T/C,[6],109 % of control and 111 % of control
same,T/C,[12],108 % of control
same,T/C,[7],109 % of control and 115 % of control
same,T/C,[13],104 % of control
same,T/C,[8],121 % of control and 124 % of control
Cn1c2ccccc2c(=O)c2c(O)cc3c(c21)C=CC(C)(C)O3,T/C,[1],86 % of control
same,T/C,[2],89 % of control
same,T/C,[3],96 % of control
O=C(N[C@H](CO)[C@H](O)c1ccc([N+](=O)[O-])cc1)C(Cl)Cl,T/C,[9],117 % of control
same,T/C,[12],103 % of control
same,T/C,[13],109 % of control
same,T/C,[14],97 % of control
same,T/C,"dose: 800.0 mg/kg/injection, vehicle: saline with Tween-80",100 % of control
Nc1c(Cl)[nH]cnc1=S,T/C,[5],89 % of control
same,T/C,[6],105 % of control
same,T/C,[7],88 % of control and 91 % of control
CN(C)c1ccc2c(Nc3ccc(NS(C)(=O)=O)cc3)c3ccc(N(C)C)cc3nc2c1,T/C,[1],94 % of control
same,T/C,[2],115 % of control and 92 % of control
same,T/C,[3],90 % of control and 104 % of control
CCOc1ccc(-c2nc3ccc(-c4nc5ccc(N6CCN(C)CC6)cc5[nH]4)cc3[nH]2)cc1,T/C,"dose: 1.56 mg/kg/injection, vehicle: saline",113 % of control
same,T/C,"dose: 3.12 mg/kg/injection, vehicle: saline",114 % of control
same,T/C,"dose: 6.25 mg/kg/injection, vehicle: saline",110 % of control
same,T/C,[4],110 % of control
CCCC(NC(=O)CNC(=O)OCc1ccccc1)C(=O)O (stereo not given) (HELM PEPTIDE1{[O=C(OCc1ccccc1)[*:2]].G.[CCCC(N[*:1])C(=O)O]}$$$$V2.0),T/C,[3],104 % of control
same,T/C,[15],92 % of control
Nc1nc(SCc2ccccc2Cl)c2ncn(C3OC(CO)C(O)C3O)c2n1 (stereo not given),T/C,[10],106 % of control
same,T/C,[11],90 % of control
O=c1cc(-c2ccccc2)nc(N[N+](=O)[O-])[nH]1,T/C,"dose: 11.0 mg/kg/injection, vehicle: Klucel (hydroxypropylcellulose) (HPC)",91 % of control
same,T/C,"dose: 22.0 mg/kg/injection, vehicle: Klucel (hydroxypropylcellulose) (HPC)",100 % of control
same,T/C,"dose: 44.0 mg/kg/injection, vehicle: Klucel (hydroxypropylcellulose) (HPC)",105 % of control
same,T/C,"dose: 88.0 mg/kg/injection, vehicle: Klucel (hydroxypropylcellulose) (HPC)",88 % of control
CC1=CC2C(O)(CC(CO)=CC3C4C(C)(C)C4(OC(=O)c4ccccc4)C(OC(=O)c4ccccc4)C(C)C32O)C1=O (stereo not given),T/C,"dose: 0.13 mg/kg/injection, vehicle: saline with Tween-80",98 % of control
same,T/C,"dose: 0.25 mg/kg/injection, vehicle: saline with Tween-80",90 % of control
same,T/C,"dose: 0.5 mg/kg/injection, vehicle: saline with Tween-80",93 % of control
same,T/C,"dose: 1.0 mg/kg/injection, vehicle: saline with Tween-80",95 % of control
same,T/C,"dose: 2.0 mg/kg/injection, vehicle: saline with Tween-80",90 % of control
CCn1c(-c2ccc(OC(C)=O)cc2)c(C)c2cc(OC(C)=O)ccc21,T/C,[1],104 % of control
same,T/C,[2],97 % of control
same,T/C,[3],97 % of control
same,T/C,[15],87 % of control
same,T/C,"dose: 400.0 mg/kg/injection, vehicle: Klucel (hydroxypropylcellulose) (HPC)",107 % of control
CC(C)CC(NC(=O)OCC1c2ccccc2-c2ccccc21)C(=O)O (stereo not given),T/C,[1],102 % of control
same,T/C,[3],122 % of control and 101 % of control
O=C1CC(c2ccc(Cl)cc2Cl)Oc2ccc(Cl)cc21 (stereo not given),T/C,"dose: 3.13 mg/kg/injection, vehicle: saline with Tween-80",100 % of control
same,T/C,"dose: 6.25 mg/kg/injection, vehicle: saline with Tween-80",93 % of control
same,T/C,[10],88 % of control
same,T/C,[11],100 % of control
CNc1cccnc1/C=N/NC(N)=S,T/C,[10],119 % of control
same,T/C,[9],159 % of control
same,T/C,[12],151 % of control
c1nc(N2CC2)c2cnn(C3CCCCO3)c2n1 (stereo not given),T/C,[9],91 % of control
same,T/C,[12],93 % of control
same,T/C,[13],91 % of control
Nc1nc(N)c2cc(S(=O)(=O)c3ccccc3)ccc2n1,T/C,[11],88 % of control
same,T/C,[9],103 % of control and 105 % of control
same,T/C,[13],153 % of control and 171 % of control
CC(SC(C)C(=O)N/N=C/c1ccc(C#N)cc1)C(=O)N/N=C\c1ccc(C#N)cc1 (stereo not given),T/C,[9],92 % of control
same,T/C,[12],88 % of control
same,T/C,[13],87 % of control
same,T/C,[8],88 % of control
